# From paper PMC9583330, “Quinazoline-4(3H)-one-7-carboxamide Derivatives as Human Soluble Epoxide Hydrolase Inhibitors with Developable 5-Lipoxygenase Activating Protein Inhibition” (ACS Omega, 2022)
# Values joined by “and” are separate entries in the source; they are usually repeats but may differ in a detail not shown here. Equal entries are not always repeated.
# Tests used:
# [1] = molecular target: T1, Human recombinant sEH (Homo sapiens, UniProt P34913); assay: sEH cell-free fluorescence-based assay (PHOME substrate); format: biochemical; settings: means ± SEM, n = 3; for IC50: cell-free assay, human sEH; for remaining activity at 10 µM: residual activity at 10 μM, control = vehicle 100%
# T1 construct: made in house; host or cells: Sf9 insect cells, recombinant baculovirus from Dr. B. Hammock
# T1 sequence (P34913 1-555): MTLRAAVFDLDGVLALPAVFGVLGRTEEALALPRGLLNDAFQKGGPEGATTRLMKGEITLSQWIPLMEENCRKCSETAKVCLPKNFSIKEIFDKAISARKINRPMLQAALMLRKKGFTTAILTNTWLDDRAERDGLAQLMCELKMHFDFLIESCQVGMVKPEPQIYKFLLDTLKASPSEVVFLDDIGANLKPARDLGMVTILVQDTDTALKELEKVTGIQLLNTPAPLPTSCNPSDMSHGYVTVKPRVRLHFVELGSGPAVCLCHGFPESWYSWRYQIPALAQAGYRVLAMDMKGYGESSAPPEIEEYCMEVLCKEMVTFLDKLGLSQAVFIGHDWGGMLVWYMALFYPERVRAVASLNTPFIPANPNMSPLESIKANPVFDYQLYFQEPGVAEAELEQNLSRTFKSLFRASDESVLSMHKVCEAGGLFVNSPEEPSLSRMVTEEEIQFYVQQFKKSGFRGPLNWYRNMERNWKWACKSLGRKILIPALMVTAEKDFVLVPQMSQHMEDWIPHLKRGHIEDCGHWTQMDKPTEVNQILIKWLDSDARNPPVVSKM
# Experimental: Human recombinant sEH was expressed and purified as reported before.[46] In brief, Sf9 cells were infected with a recombinant baculovirus (kindly provided by Dr. B. Hammock, University of California, Davis, CA). Seventy-two hours post-transfection, cells were pelleted and sonicated (3 × 10 s at 4 °C) in lysis buffer containing NaHPO4 (50 mM, pH 8), NaCl (300 mM), glycerol (10%), EDTA (1 mM), phenylmethanesulfonyl fluoride (1 mM), leupeptin (10 μg/mL), and a soybean trypsin inhibitor (60 μg/mL). Supernatants after centrifugation at 100,000 × g (60 min, 4 °C) were subjected to benzylthio-sepharose-affinity chromatography in order to purify sEH by elution with 4-fluorochalcone oxide in PBS containing 1 mM DTT and 1 mM EDTA. Dialyzed and concentrated (Millipore Amicon-Ultra-15 centrifugal filter) enzyme solution was assayed for total protein with a Bio-Rad protein detection kit (Bio-Rad Laboratories, Munich, Germany), and the epoxide hydrolase activity was determined by using a fluorescence-based assay as described before.[47] Shortly, sEH was diluted in Tris buffer (25 mM, pH 7) supplemented with BSA (0.1 mg/mL) to an appropriate enzyme concentration and preincubated with test compounds or vehicle (0.1% DMSO) for 10 min at room temperature (RT). The reaction was started by the addition of 50 μM 3-phenyl-cyano(6-methoxy-2-naphthalenyl)methyl ester-2-oxiraneacetic acid (PHOME), a nonfluorescent compound that is enzymatically converted into fluorescent 6-methoxy-naphtaldehyde at RT. After 60 min, reactions were stopped by ZnSO4 (200 mM) and fluorescence was detected (λem 465 nm, λex 330 nm) using a NOVOstar microplate reader (BMG Labtech GmbH, Ortenberg, Germany), and potential fluorescence of test compounds was subtracted from the read-out, if required.
# [2] = tested on: FLAP-mediated cellular LT formation in human neutrophils; assay: FLAP-dependent 5-LO product formation in intact neutrophils; format: cell-based; settings: Neutrophil; for IC50: Homo sapiens, intact neutrophils challenged with 2.5 μM ionophore plus 20 μM arachidonic acid; for activity at 10 µM: 10 μM inhibitor, read-out: 5-LO product formation in neutrophils, remaining activity (% of control) at 10 μM; for activity at 10 µM / activity at 1 µM: human neutrophils, 2.5 μM Ca2+-ionophore A23187, means ± SEM, n = 4–5; for activity at 1 µM: 1 μM inhibitor, read-out: 5-LO product formation in neutrophils, remaining activity (% of control) at 1 μM
# Experimental: Neutrophils were isolated from leukocyte concentrates obtained from freshly withdrawn peripheral blood of healthy adult male and female donors which were provided by the Institute of Transfusion Medicine, University Hospital Jena, Germany. The experimental protocol was approved by the ethical committee of the University Hospital Jena, and all methods were performed in accordance with the relevant guidelines and regulations. The leukocyte concentrates were mixed with dextran (from Leuconostoc spp. MW ∼40,000, Sigma Aldrich) for sedimentation of erythrocytes, and the supernatant was centrifuged on lymphocyte separation medium (Histopaque-1077, Sigma Aldrich). Contaminating erythrocytes in the pelleted neutrophils were removed by hypotonic lysis using distilled water. The neutrophils were washed twice in ice-cold PBS pH 7.4 and finally resuspended in PBS pH 7.4 plus 1 mg/mL glucose (PGC buffer).
# Human neutrophils [5 × 10^6; in PGC buffer; incubation volume, 1 mL] were preincubated with 0.1% DMSO (vehicle) or with the compounds at 37 °C for 15 min. […] Samples were then subjected to solid-phase extraction on C18-columns (100 mg, UCT, Bristol, PA), and 5-LO products (LTB4 and its trans-isomers, and 5-H(p)ETE) were extracted and analyzed in the presence of internal standard PGB1 by RP-HPLC and UV detection as reported elsewhere.[45]
IC50 [1],melting point,remaining activity at 10 µM [1],IC50 [2],Compound,activity at 10 µM [2],activity at 1 µM [2]
11 µM and 11.2 µM,202.3 to 203.8 °C,,,"Cc1ncccc1CSc1nc2cc(C(=O)NCC(C)(C)C)ccc2c(=O)[nH]1 [Compound 44, 2-(((2-Methylpyridin-3-yl)methyl)thio)-N-neopentyl-4-oxo-3,4-dihydroquinazoline-7-carboxamide]",,
2.4 ± 0.3 µM,190.3 to 192.2 °C,,,"CC(C)(C)CNC(=O)c1ccc2c(=O)[nH]c(SCc3ccccc3C#N)nc2c1 [Compound 40, 2-((2-Cyanobenzyl)thio)-N-neopentyl-4-oxo-3,4-dihydroquinazoline-7-carboxamide]",,
~10 µM,250.6 to 252.6 °C,51.9%,,"CC(C)(C)CNC(=O)c1ccc2c(=O)[nH]c(SCc3cccc(C(=O)O)c3)nc2c1 [Compound 21, 3-(((7-(Neopentylcarbamoyl)-4-oxo-3,4-dihydroquinazolin-2-yl)thio)methyl)benzoic Acid]",,
,277.8 to 279.8 °C,,2.1 ± 0.4 µM,"O=C(O)c1ccc2c(=O)n(-c3ccccc3)c(SCc3ccccc3Cl)nc2c1 [Compound 10, 2-((2-Chlorobenzyl)thio)-4-oxo-3-phenyl-3,4-dihydroquinazoline-7-carboxylic Acid]",1.3 ± 0.3%,
~10 µM,212.5 to 213.3 °C,58.3%,,"CC(C)NC(=O)c1ccc2c(=O)n(-c3ccccc3)c(SCc3ccc(C(F)(F)F)cc3)nc2c1 [Compound 13, N-Isopropyl-4-oxo-3-phenyl-2-((4-(trifluoromethyl)benzyl)thio)-3,4-dihydroquinazoline-7-carboxamide]",,
> 10 µM,198.6 to 200.4 °C,77.7%,,"O=C(c1ccc2c(=O)[nH]c(SCc3ccccc3Cl)nc2c1)N1CCOCC1 [Compound 50, 2-((2-Chlorobenzyl)thio)-7-(morpholine-4-carbonyl)quinazolin-4(3H)-one]",,
,280 °C (dec.),,~10 µM,O=C(O)c1ccc2c(=O)[nH]c(SCc3ccccc3Cl)nc2c1 [Compound 22],50.3 ± 15.5%,102 ± 5.4%
1.6 ± 0.1 µM,215.5 to 216.9 °C,,< 10 µM,"CC(C)(C)CNC(=O)c1ccc2c(=O)[nH]c(SCc3ccc(Cl)c(Cl)c3)nc2c1 [Compound 38, 2-((3,4-Dichlorobenzyl)thio)-N-neopentyl-4-oxo-3,4-dihydroquinazoline-7-carboxamide]",34.9 ± 10.6%,105 ± 3.1%
7.4 ± 2.8 µM,230.8 to 232.7 °C,,,"CC(C)CNC(=O)c1ccc2c(=O)n(-c3ccccc3)c(SCc3ccccc3Cl)nc2c1 [Compound 12, N-Isobutyl-4-oxo-3-phenyl-2-((2-chlorobenzyl)thio)-3,4-dihydroquinazoline-7-carboxamide]",,
> 10 µM,159.9 to 162 °C,105%,,"O=C(c1ccc2c(=O)[nH]c(SCc3ccccc3Cl)nc2c1)N1CCNCC1 [Compound 48, 2-((2-Chlorobenzyl)thio)-7-(piperazine-1-carbonyl)quinazolin-4(3H)-one]",,
> 10 µM,176.7 to 178.7 °C,68%,2.7 ± 0.8 µM,"CC(C)(C)CNC(=O)c1ccc2c(=O)[nH]c(NCc3ccccc3Cl)nc2c1 [Compound 55, 2-((2-Chlorobenzyl)amino)-N-neopentyl-4-oxo-3,4-dihydroquinazoline-7-carboxamide]",8.9 ± 3.6%,77.9 ± 12.1%
> 10 µM,175.6 to 177.2 °C,58.5%,,O=C(c1ccc2c(=O)[nH]c(SCc3ccccc3Cl)nc2c1)N1CCCCC1 [Compound 49],,
1.2 ± 0.1 µM,207.4 to 209.4 °C,,,"Cc1ccccc1CSc1nc2cc(C(=O)NCC(C)(C)C)ccc2c(=O)[nH]1 [Compound 41, 2-((2-Methylbenzyl)thio)-N-neopentyl-4-oxo-3,4-dihydroquinazoline-7-carboxamide]",,
0.66 µM and 0.7 µM,238.4 to 239.8 °C,,2.91 µM,"CC(C)(C)CNC(=O)c1ccc2c(=O)[nH]c(SCc3ccccc3Cl)nc2c1 [Compound 34, 2-((2-Chlorobenzyl)thio)-N-neopentyl-4-oxo-3,4-dihydroquinazoline-7-carboxamide]",4.5 ± 1.2%,84.5 ± 4.5%
0.3 ± 0.05 µM,217.1 to 218.4 °C,,> 10 µM,"CC(C)(C)CNC(=O)c1ccc2c(=O)[nH]c(SCc3cccc(Cl)c3)nc2c1 [Compound 35, 2-((3-Chlorobenzyl)thio)-N-neopentyl-4-oxo-3,4-dihydroquinazoline-7-carboxamide]",62.1 ± 12.2%,93.5 ± 11.4%
3.9 ± 2 µM,230.2 to 232.1 °C,,,"COc1ccccc1CSc1nc2cc(C(=O)NCC(C)(C)C)ccc2c(=O)[nH]1 [Compound 42, 2-((2-Methoxybenzyl)thio)-N-neopentyl-4-oxo-3,4-dihydroquinazoline-7-carboxamide]",,
4.5 ± 0.7 µM,214.7 to 216.6 °C,,,"CC(C)CNC(=O)c1ccc2c(=O)n(-c3ccccc3)c(SCc3ccc(C(F)(F)F)cc3)nc2c1 [Compound 14, N-Isobutyl-4-oxo-3-phenyl-2-((4-(trifluoromethyl)benzyl)thio)-3,4-dihydroquinazoline-7-carboxamide]",,
1.5 ± 0.2 µM,262.8 to 264.6 °C,,,"CC(C)CNC(=O)c1ccc2c(=O)[nH]c(SCc3ccc(C(F)(F)F)cc3)nc2c1 [Compound 46, 2-((4-(Trifluoromethyl)benzyl)thio)-N-isobutyl-4-oxo-3,4-dihydroquinazoline-7-carboxamide]",,
1.3 ± 0.1 µM,210.3 to 212.2 °C,,,"CC(C)(C)CNC(=O)c1ccc2c(=O)[nH]c(SCc3ccccc3F)nc2c1 [Compound 39, 2-((2-Fluorobenzyl)thio)-N-neopentyl-4-oxo-3,4-dihydroquinazoline-7-carboxamide]",,
0.4 ± 0.1 µM,220.9 to 221.9 °C,,,"CC(C)(C)CNC(=O)c1ccc2c(=O)[nH]c(SCc3ccccc3OC(F)(F)F)nc2c1 [Compound 43, 2-((2-(Trifluoromethoxy)benzyl)thio)-N-neopentyl-4-oxo-3,4-dihydroquinazoline-7-carboxamide]",,
> 10 µM,269.6 to 271.4 °C,94.3%,,"COC(=O)c1cccc(CSc2nc3cc(C(=O)NCC(C)(C)C)ccc3c(=O)[nH]2)c1 [Compound 20, Methyl 3-(((7-(neopentylcarbamoyl)-4-oxo-3,4-dihydroquinazolin-2-yl)thio)methyl)benzoate]",,
